From US10206988B2, “Xenoantigen-displaying anti-cancer vaccines and method of making” (The University of Toledo, priority 2012, dated 2019)

Columns and labels:
female BALB/c mice [1] = assay: Comparison of anti-Rha antibody titers and isotypes generated against Rha-Ficoll and Rha-OVA (screening against Rha-BSA); format: in vivo; conditions: isotype distribution, sera screened against Rha-BSA
Description: (§1) 96 well plates (Immulon 4 HBX) were coated with Rha-BSA conjugate (6) (2 μg/mL) in 0.01 M PBS and incubated overnight at 4° C. The plates were washed 5 times with PBS containing 0.1% Tween-20. Blocking was achieved by incubating the plates for 1 h at room temperature with BSA in 0.01 M PBS (1 mg/mL). The plates were then washed 5 times and incubated for 1 h with serum dilutions in PBS. Unbound antibody in the serum was removed by washing and the plates were incubated for 1 h at room temperature with Horseradish Peroxidase (HRP) goat anti-mouse IgG+IgM (Jackson Immunoresearch Laboratories) diluted 5000 times in PBS/BSA. The plates were washed with TMB (3,3′,5,5′-tetramethylbenzidine). One component HRP microwell substrate (Bio FX, Owings Mills, Md.) was added and allowed to react for 10 mins. Absorbances were recorded at 620 nm and were plotted against log10 [1/serum dilution].
Two groups of five female BALB/c mice each were immunized on day 0 with Rha-Ficoll/Alum adjuvant (group A) or Rha-OVA/complete Freund's adjuvant (CFA) (group B). The mice were boosted three more times on days 14, 28, and 42 with either Rha-Ficoll/Alum (group A) or rha-OVA/incomplete Freund's adjuvant (ICF) (group B). Sera were collected separately from groups A and B after the third boost and the anti-Rha antibodies in the sera from the two groups of mice were isotyped by screening against Rha-BSA. […]

female BALB/c mice [2] = assay: Anti-Rha antibody generation with Rha-Ficoll/Alum (ELISA against Rha-BSA); format: in vivo; conditions: day 66 sera
Description: The 20 female BALB/c mice used for this study were divided into four groups A1, A2, B1, and B2, containing 5 mice each. Groups A1 and B1 served as the control groups and were not immunized. Groups A2 and B2 were injected subcutaneously (day 0) with a 100 μL subcutaneous injections Rha-Ficoll/Alum on days 14, 28, 42, and 56 (100 μg of Rha-Ficoll per mouse, each boost). The mice in each group A1, A2, B1, and B2 were bled on day 66 and the collected sera were tested for anti-Rha antibodies.
as §1, with “dilution]. […]” for “dilution].”

U266 cells = assay: Tumor cell staining (FACS); format: cell-based, human; conditions: 0.5 μg antibody, FITC goat anti-mouse IgG+IgM
Description: U266 cells (American Type Culture Collection, Manassas, Va.), were cultured in RPMI 1640 with 15% fetal calf serum (FCS). Cells were stained with purified mouse anti-human MUC1 antibodies (CD227, 0.5 μg), non-immune BALB/c mice serum (1/5 dilution) and group B2 mice serum (1/5 dilution). The cells were then stained with FITC-conjugated goat anti-mouse IgG+IgM (0.5 μg) and fluorescence was quantified with a BD FACS Calibur.
These cells express MUC1 on their surface as shown by binding with mouse anti-human MUC1 antibodies (CD 227).

Substance	IgG3 share of anti-Rha antibodies (female BALB/c mice [1]) [%]	IgM share of anti-Rha antibodies (female BALB/c mice [1]) [%]	anti-Rha antibody titers in groups A2 and B2 relative to control groups (female BALB/c mice [2]) [fold]	binding to MUC1 on U266 human leukemia cells (U266 cells)
2-Aminoethyl-α-L-Rhamnopyranoside-Ficoll Conjugate [Rha-Ficoll]	48	25	25	
CD 227: purified mouse anti-human CD227 (anti-human MUC1) from BD-biosciences				binding
